These results are taken from BindingDB's records for doi:10.1021/ja0727520 (University of California Berkeley, 2007).

Holding throughout (assay): Determination of Inhibitor Ki
Common to all, as to details: pH 7.4; 22 °C

In assay [1] the target is T1, TYR_PHOSPHATASE_2 domain-containing protein (Mycobacterium tuberculosis (strain CDC 1551 / Oshkosh), UniProt P96830).
T1 sequence (P96830 whole entry): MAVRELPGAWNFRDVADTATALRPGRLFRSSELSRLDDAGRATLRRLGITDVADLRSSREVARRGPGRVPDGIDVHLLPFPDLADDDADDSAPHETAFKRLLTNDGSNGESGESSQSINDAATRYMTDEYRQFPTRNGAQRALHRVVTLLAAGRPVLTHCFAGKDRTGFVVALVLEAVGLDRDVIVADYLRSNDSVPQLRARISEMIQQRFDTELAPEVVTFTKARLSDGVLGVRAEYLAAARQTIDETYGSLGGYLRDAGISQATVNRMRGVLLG

In assay [2] the target is T2, Receptor-type tyrosine-protein phosphatase C (Homo sapiens, UniProt P08575).
T2 sequence (P08575 whole entry): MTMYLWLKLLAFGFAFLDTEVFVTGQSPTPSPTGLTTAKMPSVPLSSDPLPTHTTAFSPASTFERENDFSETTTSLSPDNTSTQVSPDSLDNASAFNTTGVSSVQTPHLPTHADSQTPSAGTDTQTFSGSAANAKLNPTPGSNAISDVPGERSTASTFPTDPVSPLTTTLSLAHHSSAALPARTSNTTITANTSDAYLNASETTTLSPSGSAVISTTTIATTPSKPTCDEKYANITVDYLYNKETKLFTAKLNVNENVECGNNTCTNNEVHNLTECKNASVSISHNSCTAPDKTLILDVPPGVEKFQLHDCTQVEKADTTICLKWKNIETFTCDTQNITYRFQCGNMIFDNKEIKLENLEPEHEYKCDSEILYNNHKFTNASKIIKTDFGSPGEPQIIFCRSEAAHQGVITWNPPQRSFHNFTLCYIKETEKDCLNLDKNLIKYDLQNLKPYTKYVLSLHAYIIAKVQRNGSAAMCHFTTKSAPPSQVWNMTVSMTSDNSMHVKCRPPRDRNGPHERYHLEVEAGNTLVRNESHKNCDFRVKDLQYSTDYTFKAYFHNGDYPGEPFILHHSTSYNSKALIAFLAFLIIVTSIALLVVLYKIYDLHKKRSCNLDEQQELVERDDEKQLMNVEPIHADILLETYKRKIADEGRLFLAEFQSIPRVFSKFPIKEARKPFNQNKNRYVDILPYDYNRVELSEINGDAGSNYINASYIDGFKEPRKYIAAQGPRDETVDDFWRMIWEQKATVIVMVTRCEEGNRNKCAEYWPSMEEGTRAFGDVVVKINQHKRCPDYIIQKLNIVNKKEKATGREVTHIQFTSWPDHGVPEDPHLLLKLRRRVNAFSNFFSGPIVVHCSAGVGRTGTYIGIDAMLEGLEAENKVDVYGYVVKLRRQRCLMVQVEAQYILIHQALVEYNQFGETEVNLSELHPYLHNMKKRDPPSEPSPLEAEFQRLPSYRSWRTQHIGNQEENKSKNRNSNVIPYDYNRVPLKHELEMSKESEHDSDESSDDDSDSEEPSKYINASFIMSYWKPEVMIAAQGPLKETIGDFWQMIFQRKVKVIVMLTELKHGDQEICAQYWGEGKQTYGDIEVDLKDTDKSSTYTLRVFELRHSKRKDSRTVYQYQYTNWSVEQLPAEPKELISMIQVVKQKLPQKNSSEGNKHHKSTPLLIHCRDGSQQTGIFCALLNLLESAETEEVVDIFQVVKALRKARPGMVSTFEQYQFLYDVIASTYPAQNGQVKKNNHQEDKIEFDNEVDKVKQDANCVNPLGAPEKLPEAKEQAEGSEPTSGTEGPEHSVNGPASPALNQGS

Assay [3] has as its target T3, Low molecular weight protein-tyrosine phosphatase A (Mycobacterium tuberculosis (strain ATCC 25618 / H37Rv), UniProt P9WIA1).
T3 sequence (P9WIA1 whole entry): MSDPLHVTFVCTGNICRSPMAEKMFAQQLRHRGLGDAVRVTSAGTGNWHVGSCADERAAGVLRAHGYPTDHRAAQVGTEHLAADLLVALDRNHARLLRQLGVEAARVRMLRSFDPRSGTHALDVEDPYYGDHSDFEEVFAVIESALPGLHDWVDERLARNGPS

Assay [4] addresses Receptor-type tyrosine-protein phosphatase F (Homo sapiens, UniProt P10586).
In assay [5] the target is Dual specificity protein phosphatase 3 (Homo sapiens, UniProt P51452).
Chain of Dual specificity protein phosphatase 3 (P51452 whole entry): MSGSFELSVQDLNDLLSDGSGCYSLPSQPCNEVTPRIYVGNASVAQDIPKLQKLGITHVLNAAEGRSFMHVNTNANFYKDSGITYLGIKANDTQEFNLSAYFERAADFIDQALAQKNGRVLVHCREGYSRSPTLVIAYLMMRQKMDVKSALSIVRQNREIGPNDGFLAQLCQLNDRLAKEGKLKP
Assay [6] addresses T4, Tyrosine-protein phosphatase non-receptor type 2 (Homo sapiens, UniProt P17706).
T4 sequence (P17706 whole entry): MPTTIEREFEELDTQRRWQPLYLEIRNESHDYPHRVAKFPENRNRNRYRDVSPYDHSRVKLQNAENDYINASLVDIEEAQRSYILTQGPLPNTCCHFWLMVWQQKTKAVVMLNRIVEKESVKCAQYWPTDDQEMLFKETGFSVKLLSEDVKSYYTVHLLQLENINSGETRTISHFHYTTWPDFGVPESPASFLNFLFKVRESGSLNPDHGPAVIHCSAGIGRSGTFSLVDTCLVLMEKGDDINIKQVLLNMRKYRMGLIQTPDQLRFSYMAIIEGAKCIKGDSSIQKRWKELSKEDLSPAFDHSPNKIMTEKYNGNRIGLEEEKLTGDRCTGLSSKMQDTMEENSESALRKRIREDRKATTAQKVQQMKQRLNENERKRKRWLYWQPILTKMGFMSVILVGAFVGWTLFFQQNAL

SMILES strings stand for the structures.

By Ki is commonly meant the dissociation constant of the complex between target and ligand, obtained from inhibition or displacement. A higher Ki goes with weaker binding.

Chain of Receptor-type tyrosine-protein phosphatase F (P10586 whole entry): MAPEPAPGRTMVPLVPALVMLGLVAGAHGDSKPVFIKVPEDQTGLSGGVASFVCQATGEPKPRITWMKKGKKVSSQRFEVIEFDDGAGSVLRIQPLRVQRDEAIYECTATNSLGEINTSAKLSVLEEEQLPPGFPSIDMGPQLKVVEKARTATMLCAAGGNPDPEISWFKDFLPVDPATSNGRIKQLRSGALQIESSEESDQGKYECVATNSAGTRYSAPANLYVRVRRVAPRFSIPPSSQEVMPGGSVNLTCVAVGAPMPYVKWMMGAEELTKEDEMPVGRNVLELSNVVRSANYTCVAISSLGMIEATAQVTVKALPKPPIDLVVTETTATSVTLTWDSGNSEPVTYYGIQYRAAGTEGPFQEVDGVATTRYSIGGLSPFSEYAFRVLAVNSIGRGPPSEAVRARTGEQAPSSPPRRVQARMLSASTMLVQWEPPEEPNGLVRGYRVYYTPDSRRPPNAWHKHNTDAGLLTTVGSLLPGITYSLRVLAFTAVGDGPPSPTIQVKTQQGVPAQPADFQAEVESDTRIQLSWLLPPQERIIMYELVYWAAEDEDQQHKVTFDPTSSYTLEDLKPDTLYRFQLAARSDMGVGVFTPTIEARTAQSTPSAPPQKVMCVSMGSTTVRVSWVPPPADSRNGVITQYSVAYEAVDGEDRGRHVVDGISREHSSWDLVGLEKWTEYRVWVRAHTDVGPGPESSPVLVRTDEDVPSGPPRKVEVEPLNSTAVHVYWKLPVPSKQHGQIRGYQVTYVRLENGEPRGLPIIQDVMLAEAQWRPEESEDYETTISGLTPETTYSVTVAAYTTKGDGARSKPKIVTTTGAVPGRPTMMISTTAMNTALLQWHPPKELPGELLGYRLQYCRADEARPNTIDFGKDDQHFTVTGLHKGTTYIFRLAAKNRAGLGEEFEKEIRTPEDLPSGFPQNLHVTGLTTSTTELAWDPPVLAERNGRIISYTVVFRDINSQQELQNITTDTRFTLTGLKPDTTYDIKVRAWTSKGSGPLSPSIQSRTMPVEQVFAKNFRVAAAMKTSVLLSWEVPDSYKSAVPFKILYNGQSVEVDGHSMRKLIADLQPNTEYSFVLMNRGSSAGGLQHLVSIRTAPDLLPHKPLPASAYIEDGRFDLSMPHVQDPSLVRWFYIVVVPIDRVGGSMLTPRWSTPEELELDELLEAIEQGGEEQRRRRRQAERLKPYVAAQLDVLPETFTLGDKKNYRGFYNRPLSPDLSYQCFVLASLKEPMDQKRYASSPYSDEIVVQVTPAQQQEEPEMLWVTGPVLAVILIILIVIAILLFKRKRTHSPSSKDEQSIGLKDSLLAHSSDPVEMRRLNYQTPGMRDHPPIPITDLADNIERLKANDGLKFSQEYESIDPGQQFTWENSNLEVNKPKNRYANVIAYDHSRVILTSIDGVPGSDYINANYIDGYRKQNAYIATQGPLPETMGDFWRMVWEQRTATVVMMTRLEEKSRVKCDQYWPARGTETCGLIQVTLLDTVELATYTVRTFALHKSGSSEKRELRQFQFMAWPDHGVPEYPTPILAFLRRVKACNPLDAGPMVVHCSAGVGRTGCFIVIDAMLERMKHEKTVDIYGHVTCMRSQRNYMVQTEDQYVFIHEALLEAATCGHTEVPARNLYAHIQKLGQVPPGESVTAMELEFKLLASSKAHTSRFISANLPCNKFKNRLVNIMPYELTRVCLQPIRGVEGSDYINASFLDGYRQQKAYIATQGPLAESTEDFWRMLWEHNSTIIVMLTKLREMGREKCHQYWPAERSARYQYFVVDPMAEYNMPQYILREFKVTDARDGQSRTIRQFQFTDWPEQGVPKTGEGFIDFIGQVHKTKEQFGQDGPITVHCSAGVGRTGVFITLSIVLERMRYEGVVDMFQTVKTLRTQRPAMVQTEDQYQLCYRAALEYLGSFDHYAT

Consider `CC(C)c1cc(-c2ccc(F)c(C(F)(F)F)c2)ccc1-c1cc(C(=O)O)no1` [5-{4-[4-fluoro-3-(trifluoromethyl)phenyl]-2-(propan-2-yl)phenyl}-1,2-oxazole-3-carboxylic acid], for which, in assay [1], the Ki is 500 nM.

With `CC(C)c1cc(-c2cccc(C(F)(F)F)c2)ccc1-c1cc(C(=O)O)no1` [5-[2-(propan-2-yl)-4-[3-(trifluoromethyl)phenyl]phenyl]-1,2-oxazole-3-carboxylic acid], affinity in assay [1] was put at a Ki of 850 nM.

Consider `O=C(O)c1cc(-c2ccc(-c3cccc(C(F)(F)F)c3)cc2)on1` [5-{4-[3-(trifluoromethyl)phenyl]phenyl}-1,2-oxazole-3-carboxylic acid], for which, in assay [1], the Ki came to 2500 nM.

Regarding `O=C(O)c1cc(-c2ccc(-c3ccc(F)c(C(F)(F)F)c3)cc2C2CCCCC2)on1` [5-{2-cyclohexyl-4-[4-fluoro-3-(trifluoromethyl)phenyl]phenyl}-1,2-oxazole-3-carboxylic acid], the Ki in assay [2] was 7.7 µM; in assay [3], above 50 µM; in assay [4] it was 21.4 µM; in assay [5], above 50 µM; in assay [6], above 50 µM.

Molecule `O=C1CC(c2ccc(-c3cccc(C(F)(F)F)c3)cc2)S(=O)(=O)N1` (centres undefined) [5-{4-[3-(trifluoromethyl)phenyl]phenyl}-1,2-thiazolidine-1,1,3-trione] displayed an inhibitory constant (Ki) in assay [1] of 8800 nM.
